Reference: article PMC11289455 (Scientific Reports, 2024)
Like-named read-outs stand apart in the source and are kept apart here.

How the values were obtained:
[1] = target: T1, H2 (histamine H2 receptor) (Homo sapiens, UniProt P25021); assay: SafetyScreen44: H2; format: binding
T1 construct: purchased Eurofins Cerep SafetyScreen44

[2] = target: T2, 5-HT2B (serotonin 2B receptor) (Homo sapiens, UniProt P41595); assay: SafetyScreen44: 5-HT2B; format: binding
T2 construct: purchased Eurofins Cerep SafetyScreen44

[3] = target: T3, V1a (vasopressin receptor 1A) (Homo sapiens, UniProt P37288); assay: SafetyScreen44: V1a; format: binding
T3 construct: purchased Eurofins Cerep SafetyScreen44

[4] = Plasma levels in rat skin inflammation model; format: in vivo; conditions: all doses except 300 mg/kg BID, data not shown
Procedure: Other groups received anti–IL-23p19 antibody (Santa Cruz Biotechnology; Catalog #sc-271279LS) or isotype antibody via intraperitoneal injection on Days -1 and 3, as additional controls. On Day 0 through Day 3, rats were anesthetized with isoflurane and injected with 1.5 μg of recombinant rat IL-23 (R&D Systems) in 20 μL PBS, intradermally, in the right ear; controls received an equivalent volume of PBS. Body weight was recorded daily. Thickness of the right (IL-23 injected) ear was measured to the nearest 0.05 mm using calipers (Kroeplin GmbH; Schlüchtern, Germany). Animals were euthanized by CO2 asphyxiation on Day 4. Blood was collected via cardiac puncture, deposited into K2EDTA tubes, and centrifuged at 2000 × g for 20 min. Plasma was collected into 5% volume protease inhibitor and stored at − 80 °C until bioanalysis by LC–MS. For gene expression analyses (IL-22, IL-17A, and IL-17F), the right ear was excised, flash frozen, homogenized, and reverse transcription polymerase chain reaction (RT-PCR) was performed using a TaqMan gene expression array (ThermoFisher Scientific).

[5] = target: T4, ETA (endothelin receptor subtype A) (Homo sapiens, UniProt P25101); assay: SafetyScreen44: ETA; format: binding
T4 construct: purchased Eurofins Cerep SafetyScreen44
T4 sequence (P25101 21-427): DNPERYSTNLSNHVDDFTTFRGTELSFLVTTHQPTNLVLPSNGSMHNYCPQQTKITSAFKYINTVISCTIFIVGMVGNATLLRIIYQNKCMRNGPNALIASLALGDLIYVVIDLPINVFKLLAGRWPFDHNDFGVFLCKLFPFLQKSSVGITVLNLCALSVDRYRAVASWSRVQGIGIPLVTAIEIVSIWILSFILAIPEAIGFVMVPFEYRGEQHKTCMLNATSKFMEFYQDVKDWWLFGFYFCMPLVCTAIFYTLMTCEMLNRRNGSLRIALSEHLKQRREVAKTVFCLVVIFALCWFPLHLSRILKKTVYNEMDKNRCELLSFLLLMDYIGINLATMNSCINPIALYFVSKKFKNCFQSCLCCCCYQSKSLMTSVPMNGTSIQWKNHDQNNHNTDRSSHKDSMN

[6] = target: T5, α1A (alpha-1A adrenergic receptor) (Homo sapiens, UniProt P35348); assay: SafetyScreen44: α1A; format: binding
T5 construct: purchased Eurofins Cerep SafetyScreen44
T5 sequence (P35348 1-466): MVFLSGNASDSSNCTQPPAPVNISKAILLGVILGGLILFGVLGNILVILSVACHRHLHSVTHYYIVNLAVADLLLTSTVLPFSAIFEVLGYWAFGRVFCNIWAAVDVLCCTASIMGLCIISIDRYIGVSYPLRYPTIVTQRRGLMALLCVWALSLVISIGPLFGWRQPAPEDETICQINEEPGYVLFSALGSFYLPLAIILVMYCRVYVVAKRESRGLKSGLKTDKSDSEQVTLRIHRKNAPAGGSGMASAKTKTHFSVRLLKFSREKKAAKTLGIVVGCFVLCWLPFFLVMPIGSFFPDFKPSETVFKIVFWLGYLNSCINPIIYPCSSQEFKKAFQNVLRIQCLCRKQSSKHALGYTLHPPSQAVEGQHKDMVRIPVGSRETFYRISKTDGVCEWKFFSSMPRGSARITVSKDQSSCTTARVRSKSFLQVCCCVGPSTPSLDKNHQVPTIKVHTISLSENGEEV

[7] = Rat pharmacokinetic and tissue distribution study, oral dosing
Procedure: Table S2. […] Plasma, small intestine, colon, and colon contents were sampled at terminal time points. Tissues and content were homogenized in buffer (1:1 PBS:ethanol with EDTA-free protease inhibitor tablets [Roche]). All samples were analyzed using LC-MS/MS.

[8] = target: T6, M3 (muscarinic acetylcholine receptor M3) (Homo sapiens, UniProt P20309); assay: SafetyScreen44: M3; format: binding
T6 construct: purchased Eurofins Cerep SafetyScreen44

[9] = target: T7, β2 (beta-2 adrenergic receptor) (Homo sapiens, UniProt P07550); assay: SafetyScreen44: β2; format: binding
T7 construct: purchased Eurofins Cerep SafetyScreen44

healthy participants = assay: First-in-human study, safety and tolerability; format: in vivo
Text: The purpose of the first-in-human, single-center, randomized, double-blind, placebo-controlled study was to determine the safety, tolerability, pharmacokinetics, and pharmacodynamics of JNJ-77242113 in healthy participants. […] AEs were coded using the Medical Dictionary for Regulatory Activities (Version 23.1).

[10] = target: T8, CB2 (cannabinoid receptor type 2) (Homo sapiens, UniProt P34972); assay: SafetyScreen44: CB2; format: binding
T8 construct: purchased Eurofins Cerep SafetyScreen44

[11] = male Sprague-Dawley rats, 10 mg/kg oral, n=4/timepoint, homogenate, LC-MS/MS
[12] = male Sprague-Dawley rats, 10 mg/kg oral, n=4/timepoint, tissue homogenate, LC-MS/MS
[13] = male, Sprague-Dawley, rat, in vivo, po, 10 mg/kg

T1 sequence (P25021 whole entry): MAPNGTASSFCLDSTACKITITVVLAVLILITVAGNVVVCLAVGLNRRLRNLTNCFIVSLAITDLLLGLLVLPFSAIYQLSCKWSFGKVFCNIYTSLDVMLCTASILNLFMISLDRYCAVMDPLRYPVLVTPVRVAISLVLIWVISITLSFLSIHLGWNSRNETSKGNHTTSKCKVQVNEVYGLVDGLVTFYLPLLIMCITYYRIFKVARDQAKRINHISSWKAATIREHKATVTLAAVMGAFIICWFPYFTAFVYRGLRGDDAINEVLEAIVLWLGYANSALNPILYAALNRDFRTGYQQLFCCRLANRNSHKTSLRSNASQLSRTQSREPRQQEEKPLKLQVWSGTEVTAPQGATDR
T8 sequence (P34972 whole entry): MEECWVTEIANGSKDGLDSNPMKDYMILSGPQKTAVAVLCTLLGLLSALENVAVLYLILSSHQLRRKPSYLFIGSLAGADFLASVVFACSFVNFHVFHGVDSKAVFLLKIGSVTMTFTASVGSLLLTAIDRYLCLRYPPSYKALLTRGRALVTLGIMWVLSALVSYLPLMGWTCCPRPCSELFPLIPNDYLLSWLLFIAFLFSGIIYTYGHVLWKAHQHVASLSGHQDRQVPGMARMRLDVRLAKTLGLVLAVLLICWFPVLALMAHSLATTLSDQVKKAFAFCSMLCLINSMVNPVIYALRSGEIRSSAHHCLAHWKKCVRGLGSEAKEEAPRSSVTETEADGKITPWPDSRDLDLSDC
T3 sequence (P37288 whole entry): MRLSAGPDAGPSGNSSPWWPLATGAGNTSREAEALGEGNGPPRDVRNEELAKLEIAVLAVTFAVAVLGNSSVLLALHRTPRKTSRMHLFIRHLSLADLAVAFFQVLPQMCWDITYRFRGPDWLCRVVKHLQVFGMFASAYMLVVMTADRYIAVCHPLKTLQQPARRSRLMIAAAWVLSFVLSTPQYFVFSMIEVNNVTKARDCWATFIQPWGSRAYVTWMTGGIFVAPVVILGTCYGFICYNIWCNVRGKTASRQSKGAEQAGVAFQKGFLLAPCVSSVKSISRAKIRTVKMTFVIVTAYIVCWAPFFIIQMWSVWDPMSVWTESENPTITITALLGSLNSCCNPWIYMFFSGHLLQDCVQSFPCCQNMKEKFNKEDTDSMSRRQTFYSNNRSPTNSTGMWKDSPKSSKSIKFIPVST
T7 sequence (P07550 whole entry): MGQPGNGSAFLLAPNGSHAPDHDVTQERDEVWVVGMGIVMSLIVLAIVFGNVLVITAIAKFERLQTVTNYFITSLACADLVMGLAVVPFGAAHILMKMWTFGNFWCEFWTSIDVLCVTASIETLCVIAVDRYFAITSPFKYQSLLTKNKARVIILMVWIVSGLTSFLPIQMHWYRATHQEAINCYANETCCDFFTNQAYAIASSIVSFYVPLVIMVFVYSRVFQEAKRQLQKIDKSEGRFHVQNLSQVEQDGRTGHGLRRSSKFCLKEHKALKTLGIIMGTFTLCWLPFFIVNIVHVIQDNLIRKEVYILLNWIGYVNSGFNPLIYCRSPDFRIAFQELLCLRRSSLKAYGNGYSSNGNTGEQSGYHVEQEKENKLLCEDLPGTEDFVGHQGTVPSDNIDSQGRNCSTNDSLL
T6 sequence (P20309 whole entry): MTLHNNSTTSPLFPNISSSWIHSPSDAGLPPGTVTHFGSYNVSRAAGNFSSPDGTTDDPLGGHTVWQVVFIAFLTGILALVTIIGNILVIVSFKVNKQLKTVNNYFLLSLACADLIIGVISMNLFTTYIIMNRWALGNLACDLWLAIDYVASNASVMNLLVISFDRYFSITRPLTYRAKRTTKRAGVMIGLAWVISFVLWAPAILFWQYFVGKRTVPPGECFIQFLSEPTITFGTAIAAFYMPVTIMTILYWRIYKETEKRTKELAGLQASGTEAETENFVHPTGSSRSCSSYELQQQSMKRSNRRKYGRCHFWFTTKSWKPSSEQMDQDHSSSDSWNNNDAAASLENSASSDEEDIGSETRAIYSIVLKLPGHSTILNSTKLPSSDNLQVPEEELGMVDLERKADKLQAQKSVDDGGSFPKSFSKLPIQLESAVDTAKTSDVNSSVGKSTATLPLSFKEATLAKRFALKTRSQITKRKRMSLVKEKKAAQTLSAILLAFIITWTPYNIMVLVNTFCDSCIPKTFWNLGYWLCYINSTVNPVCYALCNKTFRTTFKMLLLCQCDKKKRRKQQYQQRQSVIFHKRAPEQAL
T2 sequence (P41595 whole entry): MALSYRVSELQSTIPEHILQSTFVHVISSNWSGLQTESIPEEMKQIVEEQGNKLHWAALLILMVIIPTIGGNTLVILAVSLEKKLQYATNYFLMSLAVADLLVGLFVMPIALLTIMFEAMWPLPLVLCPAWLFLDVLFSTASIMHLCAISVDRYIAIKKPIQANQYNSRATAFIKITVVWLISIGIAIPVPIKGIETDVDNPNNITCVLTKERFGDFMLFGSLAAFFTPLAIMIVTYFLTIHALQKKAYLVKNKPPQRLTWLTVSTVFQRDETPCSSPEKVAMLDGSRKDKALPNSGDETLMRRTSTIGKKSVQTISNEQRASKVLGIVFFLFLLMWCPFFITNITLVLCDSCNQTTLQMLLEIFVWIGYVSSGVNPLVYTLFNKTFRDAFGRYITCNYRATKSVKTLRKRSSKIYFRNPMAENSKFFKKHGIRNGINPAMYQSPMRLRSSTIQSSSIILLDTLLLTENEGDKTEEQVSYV

Which inhibition at 10 µM ([1]; 1st run, read-out: Percent inhibition of control ligand binding, H2, 1st run) does the source give for `CC(=O)NCCCC[C@@H]1NC(=O)[C@H](Cc2c[nH]c3c(C)cccc23)NC(=O)[C@H]([C@@H](C)O)NC(=O)[C@H](CC(N)=O)NC(=O)[C@@H](NC(C)=O)C(C)(C)SSC(C)(C)[C@@H](C(=O)N[C@@H](Cc2ccc(OCCN)cc2)C(=O)N[C@@H](Cc2ccc3ccccc3c2)C(=O)NC2(C(=O)N[C@@H](CCC(=O)O)C(=O)N[C@@H](CC(N)=O)C(=O)N[C@@H](Cc3cccnc3)C(=O)N(C)CC(N)=O)CCOCC2)NC1=O` [JNJ-77242113, S^3,1,S^3,6-cyclo[N-acetyl-3-sulfanyl-L-valyl-L-asparaginyl-L-threonyl-7-methyl-L-tryptophyl-N^6-acetyl-L-lysyl-3-sulfanyl-L-valyl-O-(2-aminoethyl)-L-tyrosyl-3-(naphthalen-2-yl)-L-alanyl-4-aminooxan-4-carbonyl-L-α-glutamyl-L-asparaginyl-3-(pyridin-3-yl)-L-alanyl-N^2-methylglycinamide]] here?
Its inhibition at 10 µM is -26.6%.

What about the inhibition at 10 µM ([1]; 2nd run, read-out: Percent inhibition of control ligand binding, H2, 2nd run) of the same molecule?
Its inhibition at 10 µM is -22%.

What about the inhibition at 10 µM ([1]; mean of 2 runs, read-out: Percent inhibition of control ligand binding, H2, Mean) of the same molecule?
The inhibition at 10 µM was -24.3%.

What about the inhibition at 10 µM ([2]; 1st run, read-out: Percent inhibition of control ligand binding, 5-HT2B, 1st run) of the same molecule?
The inhibition at 10 µM was -19.6%.

And the inhibition at 10 µM ([2]; 2nd run, read-out: Percent inhibition of control ligand binding, 5-HT2B, 2nd run)?
The inhibition at 10 µM was -6.7%.

What about the inhibition at 10 µM ([2]; mean of 2 runs, read-out: Percent inhibition of control ligand binding, 5-HT2B, Mean) of the same molecule?
Its inhibition at 10 µM is -13.1%.

What about the inhibition at 10 µM ([3]; 1st run, read-out: Percent inhibition of control ligand binding, V1a, 1st run) of the same molecule?
The inhibition at 10 µM was 4.8%.

And the inhibition at 10 µM ([3]; 2nd run, read-out: Percent inhibition of control ligand binding, V1a, 2nd run)?
Its inhibition at 10 µM is 6.4%.

What about the inhibition at 10 µM ([3]; mean of 2 runs, read-out: Percent inhibition of control ligand binding, V1a, Mean) of the same molecule?
The inhibition at 10 µM was 5.6%.

What about the “Plasma levels 16 h after the final dose” value [4] of the same molecule?
The value was “below the limit of quantification”.

What about the inhibition at 10 µM ([5]; 1st run, read-out: Percent inhibition of control ligand binding, ETA, 1st run) of the same molecule?
The inhibition at 10 µM was -31.3%.

And the inhibition at 10 µM ([5]; 2nd run, read-out: Percent inhibition of control ligand binding, ETA, 2nd run)?
The inhibition at 10 µM was -12.9%.

And the inhibition at 10 µM ([5]; mean of 2 runs, read-out: Percent inhibition of control ligand binding, ETA, Mean)?
The inhibition at 10 µM was -22.1%.

What about the inhibition at 10 µM ([6]; 1st run, read-out: Percent inhibition of control ligand binding, α1A, 1st run) of the same molecule?
The inhibition at 10 µM was -4.6%.

What about the inhibition at 10 µM ([6]; 2nd run, read-out: Percent inhibition of control ligand binding, α1A, 2nd run) of the same molecule?
The inhibition at 10 µM was 5.5%.

And the inhibition at 10 µM ([6]; mean of 2 runs, read-out: Percent inhibition of control ligand binding, α1A, Mean)?
The inhibition at 10 µM was 0.5%.

And the “AUClast, colon content” value [7, 11]?
The value was 1,700,000 ng·hr/g.

And the “Cmax, colon content” value [7, 11]?
The value was 371,000 ng/g.

And the “Tmax, colon content” value [7, 11]?
Its value is 6 h.

What about the “AUClast, colon” value [7, 12] of the same molecule?
The value was 5,670 ng·hr/g.

What about the “Cmax, colon” value [7, 12] of the same molecule?
The value was 1,380 ng/g.

And the “Tmax, colon” value [7, 12]?
Its value is 6 h.

What about the AUC(0-t) [7, 13] of the same molecule?
The AUC(0-t) was 23.1 ng·h/mL.

What about the Cmax [7, 13] of the same molecule?
Its Cmax is 6.49 ng/mL.

What about the Tmax [7, 13] of the same molecule?
The Tmax was 3 h.

What about the Oral bioavailability ([7]; rat, oral dosing, data not shown) of the same molecule?
The Oral bioavailability was “low oral bioavailability”.

And the inhibition at 10 µM ([8]; 1st run, read-out: Percent inhibition of control ligand binding, M3, 1st run)?
The inhibition at 10 µM was -10.5%.

And the inhibition at 10 µM ([8]; 2nd run, read-out: Percent inhibition of control ligand binding, M3, 2nd run)?
Its inhibition at 10 µM is -5.2%.

And the inhibition at 10 µM ([8]; mean of 2 runs, read-out: Percent inhibition of control ligand binding, M3, Mean)?
The inhibition at 10 µM was -7.8%.

What about the inhibition at 10 µM ([9]; 1st run, read-out: Percent inhibition of control ligand binding, β2, 1st run) of the same molecule?
The inhibition at 10 µM was -8.2%.

What about the inhibition at 10 µM ([9]; 2nd run, read-out: Percent inhibition of control ligand binding, β2, 2nd run) of the same molecule?
The inhibition at 10 µM was -0.6%.

What about the inhibition at 10 µM ([9]; mean of 2 runs, read-out: Percent inhibition of control ligand binding, β2, Mean) of the same molecule?
Its inhibition at 10 µM is -4.4%.

What about the “Serious AEs or deaths related to JNJ-77242113” value (healthy participants; all cohorts) of the same molecule?
Its value is “No serious AEs or deaths”.

And the “Severity of adverse events” value (healthy participants; all cohorts)?
The value was “mild or moderate”.

And the “Headache, participants, Part 2” value (healthy participants; healthy participants, multiple ascending dose)?
The value was 13.6%.

And the “Frequency of treatment-related AEs, Part 2” value (healthy participants; healthy participants, multiple ascending dose, JNJ-77242113 groups)?
Its value is 46%.

What about the “Headache, participants, Part 1” value (healthy participants; healthy participants, single ascending dose) of the same molecule?
Its value is 10.3%.

And the “Frequency of treatment-related AEs, Part 1” value (healthy participants; healthy participants, single ascending dose, JNJ-77242113 groups)?
Its value is 31%.

And the inhibition at 10 µM ([10]; 1st run, read-out: Percent inhibition of control ligand binding, CB2, 1st run)?
The inhibition at 10 µM was -4.9%.

And the inhibition at 10 µM ([10]; 2nd run, read-out: Percent inhibition of control ligand binding, CB2, 2nd run)?
Its inhibition at 10 µM is -5.8%.

What about the inhibition at 10 µM ([10]; mean of 2 runs, read-out: Percent inhibition of control ligand binding, CB2, Mean) of the same molecule?
Its inhibition at 10 µM is -5.4%.
